Experimental data as given in patent publication US20230390292A1, “REGIMENS FOR THE TREATMENT OF HAIR LOSS DISORDERS WITH DEUTERATED JAK INHIBITORS” (Sun Pharmaceutical Industries, Inc., priority 2020, published 2023).

Experiments:
Format in all cases: in vivo, human
[1] = tested on: adult patients with moderate-to-severe alopecia areata; test: Phase 2a trial, safety (treatment emergent adverse events)
Description: (§1) A Phase 2a trial was conducted to evaluate the safety and efficacy of Compound (I) (CTP-543) in subjects with alopecia, with the primary efficacy analysis at week 24. The Phase 2a trial was a double-blind, randomized, placebo-controlled trial to evaluate the safety and efficacy of Compound (I) in adult patients with moderate-to-severe alopecia areata. Patients were sequentially randomized to receive one of three doses of Compound I as the phosphate salt (e.g., 10.5 mg of Compound (I) phosphate salt is equivalent to 8 mg of Compound (I) free base). The doses of Compound (I) were 4, 8 (i.e., about 10.5 mg of Compound (I) phosphate salt), and 12 mg twice daily, and there was also a patient group receiving placebo. The primary outcome measure utilized the severity of alopecia tool (SALT) after 24 weeks of dosing.
In the preliminary analysis of the placebo, 4 mg, and 8 mg groups, there were only 3 Grade 3/4 hematology events, distributed equally across the placebo, 4 mg, and 8 mg groups.

[2] = tested on: adult patients with moderate-to-severe alopecia areata; test: Phase 2a trial, efficacy by severity of alopecia tool (SALT)
From the text: The efficacy of treatment of hair loss disorders such as alopecia areata can be measured in a variety of ways, some of which are known in the art. For example, the “severity of alopecia tool”, otherwise known as SALT, is a validated assessment scale developed by the National Alopecia Areata Foundation working committee—to evaluate the degree of hair loss. See, e.g., Olsen E A, Hordinsky M K, Price V H, et al. Alopecia areata investigational assessment guidelines—Part II. J Am Acad Dermatol 2004: 51: 440-447 (incorporated herein by reference). The SALT score is calculated for a patient by measuring the percentage of hair loss in each of the 4 areas of the scalp and adding the total to achieve a composite score. Hair regrowth is reflected by a decrease in the SALT score. For example, no hair on the scalp would have a SALT score of 100 while complete hair regrowth would be a SALT score of 0. In certain embodiments, methods of treatment as described herein can provide a SALT score improvement of at least 10 points after treatment (for example, from a SALT score of 100 prior to treatment to a SALT score of 90 after treatment). In further embodiments, methods of treatment as described herein can provide a SALT score improvement of at least 20 points, 30 points, 40 points, 50 points, 60 points, 70 points, 80 points, 90 points, or 100 points. In certain embodiments, methods of treatment as described herein can provide after treatment at least a 20% improvement from baseline in the patient's SALT score, or at least a 30% improvement from baseline in the patient's SALT score, or at least a 40% improvement from baseline in the patient's SALT score, or at least a 50% improvement from baseline in the patient's SALT score, or at least a 60% improvement from baseline in the patient's SALT score, or at least a 70% improvement from baseline in the patient's SALT score, or at least a 75% improvement from baseline in the patient's SALT score or at least a 80% improvement from baseline in the patient's SALT score, or at least a 90% improvement from baseline in the patient's SALT score.
as §1
Interim top line analysis for the 4 mg, 8 mg, and 12 mg cohorts is discussed below. The primary endpoint for the study was a 50% relative reduction in SALT between Week 24 and baseline.
58% of patients treated with 12 mg BID (twice daily) and 47% of patients treated with 8 mg BID (twice daily) of CTP-543 achieved a ≥50% reduction in their overall SALT score compared to 8.6% placebo (p<0.001). In addition, 42% of patients treated with 12 mg BID (p<0.001) and 29% of patients treated with 8 mg BID (p<0.05) of CTP-543 achieved a ≥75% reduction in their overall SALT score compared to 7% placebo. Further, 36% of patients treated with 12 mg BID (p<0.001) and 16% of patients treated with 8 mg BID (p<0.05) of CTP-543 achieved a ≥90% reduction in their overall SALT score compared to 2% placebo. 21% of patients treated with 4 mg BID of CTP-543 achieved a ≥50% reduction in their overall SALT score compared to 8.6% placebo (not significant). […] Significant changes in SALT score were observed starting at 12 weeks for the 12 mg and 8 mg cohorts compared to placebo (p<0.05).

[3] = tested on: subjects with alopecia areata; test: Open-label extension study (OLE), SALT score after dose reduction
Description: In an ongoing open-label extension study, subjects who were previously enrolled in a qualifying clinical study (including the study described in Example 1) and received either a total daily dose of 16 mg of Compound (I) (CTP-543, phosphate salt), a total daily dose of 24 mg of CTP-543, or placebo, and completed through the 24-week treatment period, were eligible to enroll in an open-label extension study (OLE) and continue to receive treatment with CTP-543 phosphate. A total of 152 subjects were enrolled in the OLE. In the OLE, subjects received daily treatment with CTP-543 at a dose of 8 mg BID or 12 mg BID (see FIG. 8). Dose adjustments were allowed at the investigator's discretion. One subject enrolled in the OLE, who received a daily dose of 24 mg QD of CTP-543 for approximately 9 months (i.e., the 24-week study period and the initial 3 months of the OLE), experienced hair growth at that dose (SALT score of zero, i.e., full regrowth of hair prior to dose reduction). The subject then had their dose reduced to a daily dose of 8 mg BID of CTP-543 phosphate. After approximately 7 months in the OLE receiving the lower daily dose of 8 mg BID of CTP-543, the subject continued to substantially maintain hair regrowth, with a SALT score of 7.92.

Question: With `[2H]C1([2H])C([C@@H](CC#N)n2cc(-c3ncnc4[nH]ccc34)cn2)C([2H])([2H])C([2H])([2H])C1([2H])[2H]` [CTP-543, (R)-3-(4-(7H-pyrrolo[2,3-d]pyrimidin-4-yl)-1H-pyrazol-1-yl)-3-(cyclopentyl-2,2,3,3,4,4,5,5-d8)propanenitrile] as the compound, how does the “Acne, patients (%)” value ([1]; 4 mg twice daily) read?
Answer: 4 (13.8%)

Question: What about the “Blood creatine phosphokinase increased, patients (%)” value ([1]; 4 mg twice daily) of the same compound?
Answer: 3 (10.3%)

Question: What about the “Cough, patients (%)” value ([1]; 4 mg twice daily) of the same compound?
Answer: 4 (13.8%)

Question: What about the “Diarrhoea, patients (%)” value ([1]; 4 mg twice daily) of the same compound?
Answer: 3 (10.3%)

Question: What about the “Folliculitis, patients (%)” value ([1]; 4 mg twice daily) of the same compound?
Answer: 3 (10.3%)

Question: What about the “Headache, patients (%)” value ([1]; 4 mg twice daily) of the same compound?
Answer: 5 (17.2%)

Question: And the “LDL increase, patients (%)” value ([1]; 4 mg twice daily)?
Answer: 0

Question: And the “Nasopharyngitis, patients (%)” value ([1]; 4 mg twice daily)?
Answer: 3 (10.3%)

Question: What about the “Nausea, patients (%)” value ([1]; 4 mg twice daily) of the same compound?
Answer: 4 (13.8%)

Question: What about the “Oroharyngeal pain, patients (%)” value ([1]; 4 mg twice daily) of the same compound?
Answer: 3 (10.3%)

Question: And the “Upper respiratory tract infection, patients (%)” value ([1]; 4 mg twice daily)?
Answer: 2 (6.9%)

Question: What about the “Acne, patients (%)” value ([1]; 8 mg twice daily) of the same compound?
Answer: 4 (10.5%)

Question: What about the “Blood creatine phosphokinase increased, patients (%)” value ([1]; 8 mg twice daily) of the same compound?
Answer: 2 (5.3%)

Question: What about the “Cough, patients (%)” value ([1]; 8 mg twice daily) of the same compound?
Answer: 1 (2.6%)

Question: And the “Diarrhoea, patients (%)” value ([1]; 8 mg twice daily)?
Answer: 1 (2.6%)

Question: What about the “Folliculitis, patients (%)” value ([1]; 8 mg twice daily) of the same compound?
Answer: 2 (5.3%)

Question: What about the “Headache, patients (%)” value ([1]; 8 mg twice daily) of the same compound?
Answer: 10 (26.3%)

Question: What about the “LDL increase, patients (%)” value ([1]; 8 mg twice daily) of the same compound?
Answer: 4 (10.5%)

Question: What about the “Nasopharyngitis, patients (%)” value ([1]; 8 mg twice daily) of the same compound?
Answer: 3 (7.9%)

Question: What about the “Nausea, patients (%)” value ([1]; 8 mg twice daily) of the same compound?
Answer: 4 (10.5%)

Question: And the “Oroharyngeal pain, patients (%)” value ([1]; 8 mg twice daily)?
Answer: 2 (5.3%)

Question: And the “Upper respiratory tract infection, patients (%)” value ([1]; 8 mg twice daily)?
Answer: 2 (5.3%)

Question: What about the “Acne, patients (%)” value ([1]; 12 mg twice daily) of the same compound?
Answer: 6 (16.7%)

Question: And the “Blood creatine phosphokinase increased, patients (%)” value ([1]; 12 mg twice daily)?
Answer: 1 (2.8%)

Question: And the “Cough, patients (%)” value ([1]; 12 mg twice daily)?
Answer: 2 (5.6%)

Question: What about the “Diarrhoea, patients (%)” value ([1]; 12 mg twice daily) of the same compound?
Answer: 0

Question: What about the “Folliculitis, patients (%)” value ([1]; 12 mg twice daily) of the same compound?
Answer: 1 (2.8%)

Question: And the “Headache, patients (%)” value ([1]; 12 mg twice daily)?
Answer: 7 (19.4%)

Question: What about the “LDL increase, patients (%)” value ([1]; 12 mg twice daily) of the same compound?
Answer: 0

Question: What about the “Nasopharyngitis, patients (%)” value ([1]; 12 mg twice daily) of the same compound?
Answer: 9 (25.0%)

Question: And the “Nausea, patients (%)” value ([1]; 12 mg twice daily)?
Answer: 1 (2.8%)

Question: And the “Oroharyngeal pain, patients (%)” value ([1]; 12 mg twice daily)?
Answer: 1 (2.8%)

Question: And the “Upper respiratory tract infection, patients (%)” value ([1]; 12 mg twice daily)?
Answer: 7 (19.4%)

Question: And the serious adverse events ([1]; 4, 8, 12 mg BID, 24 weeks)?
Answer: no serious adverse events

Question: What about the tolerability of treatment ([1]; 4, 8, 12 mg BID, 24 weeks) of the same compound?
Answer: generally well-tolerated

Question: What about the “Grade 3/4 hematology events” value ([1]; preliminary analysis, total, distributed equally across placebo, 4 mg and 8 mg groups) of the same compound?
Answer: 3

Question: What about the separation from placebo ([2]; 4 mg BID, all measures) of the same compound?
Answer: failed to separate from placebo on all measures

Question: What about the “patients achieving a ≥50% reduction in overall SALT score” value (shortened to “patients achieving a ≥50% reduction”) ([2]; 4 mg BID, week 24, vs 8.6% placebo (not significant)) of the same compound?
Answer: 21%

Question: What about the “difference from placebo on SALT measures” value ([2]; 8 mg BID and 12 mg BID, week 24) of the same compound?
Answer: significantly different from placebo on all SALT measures

Question: And the “patients achieving a ≥90% reduction in overall SALT score” value ([2]; 8 mg BID, vs 2% placebo (p<0.05))?
Answer: 16%

Question: What about the “patients achieving a ≥75% reduction in overall SALT score” value ([2]; 8 mg BID, vs 7% placebo (p<0.05)) of the same compound?
Answer: 29%

Question: And the “patients achieving a ≥50% reduction” value ([2]; 8 mg BID, week 24, vs 8.6% placebo (p<0.001))?
Answer: 47%

Question: What about the “effect of 12 mg BID compared to 8 mg BID” value ([2]; 12 mg BID vs 8 mg BID) of the same compound?
Answer: numerically superior and generally produced faster onset and greater effect

Question: What about the “patients achieving a ≥90% reduction in overall SALT score” value ([2]; 12 mg BID, vs 2% placebo (p<0.001)) of the same compound?
Answer: 36%

Question: What about the “patients achieving a ≥75% reduction in overall SALT score” value ([2]; 12 mg BID, vs 7% placebo (p<0.001)) of the same compound?
Answer: 42%

Question: What about the “patients achieving a ≥50% reduction” value ([2]; 12 mg BID, week 24, vs 8.6% placebo (p<0.001)) of the same compound?
Answer: 58%

Question: And the “start of significant changes in SALT score compared to placebo” value ([2]; 12 mg and 8 mg cohorts, p<0.05)?
Answer: 12 weeks

Question: What about the “difference of 12 mg BID and 8 mg BID dose groups from 4 mg BID dose group” value ([2]; p<0.05) of the same compound?
Answer: significantly different

Question: What about the “SALT score prior to dose reduction” value ([3]; one subject, 24 mg QD for approximately 9 months) of the same compound?
Answer: zero

Question: And the “SALT score after dose reduction” value ([3]; same subject, approximately 7 months at 8 mg BID after 24 mg QD)?
Answer: 7.92
